Results from patent US9932339B2, “Helquats with heteroaromatic substituents, preparation thereof, and use thereof as G-quadruplex stabilizers” (USTAV ORGANICKE CHEMIE A BIOCHEMIE AV CR, V.V.I., priority 2014, dated 2018).
Where two headings read alike, the source gives them in different places.

Tests used:
[1] = test system: G-quadruplex in promoter region of the c-myc gene (NHE III1 segment); experiment: Dual luciferase analysis with plasmid pGL4.10-myc (luc2) in HGC-27 cells; assay type: cell-based, human; conditions: for inhibition at 50 µM / activity at 50 µM: Homo sapiens; for inhibition at 50 µM: HGC-27, text summary of tab. 5 (50 μmol·l^−1), read-out: inhibition of expression of firefly luciferase as compared to control; for activity at 50 µM: helquat 50 μmol · l^−1, HGC-27, firefly normalized to Renilla, 24 hours after transfection, read-out: luciferase expression relative to control (control = 100%); for Quantification of expression relative to control (%): control = 100%
Summary of the method: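 HGC-27 cells were co-transfected 1:1 with pGL4.10-myc (luc2), whose firefly luciferase is driven by an 860 bp c-myc regulatory region containing the G-quadruplex-forming NHE III1 segment, and pRL-TK Renilla control, using X-tremeGENE HP DNA in OptiMEM. Compounds were added two hours post-transfection; luminescence read 24 hours after transfection was Renilla-normalized and expressed relative to control.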

CCRF-CEM = experiment: XTT cytotoxicity/proliferation assay, CCRF-CEM; assay type: cell-based; conditions: Homo sapiens, CCRF-CEM
Summary of the method: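 CCRF-CEM cells plated at 3000 per well, treated next day for 72 h with helquats over 1-100 μmol·l^−1. Viability by XTT reduction (2 h), absorbance 492 nm with 690 nm reference; IC50 from triplicates, repeated in at least three independent experiments, values above 100 μmol·l^−1 extrapolated.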

[2] = 72 hours of treatment, read-out: IC50 CCRF CEM
[3] = 72 hours, summary of table 9, read-out: concentrations toxic towards CCRF-CEM cells

| SMILES | inhibition at 50 µM [1] [%] | activity at 50 µM [1] [%] | IC50 (CCRF-CEM; [2]) [µM] | IC50 (CCRF-CEM; [3]) [µM] | Quantification of expression relative to control (%) ([1]; 10 μmol · l^−1) | Quantification of expression relative to control (%) ([1]; 50 μmol · l^−1) | Quantification of expression relative to control (%) ([1]; 150 μmol · l^−1) |
| --- | --- | --- | --- | --- | --- | --- | --- |
| Brc1ccc2[nH]cc(/C=C/c3cc4ccccc4[n+]4c3-c3c(ccc5c3-c3cccc[n+]3CCC5)CCC4)c2c1.O=S(=O)([O-])C(F)(F)F.O=S(=O)([O-])C(F)(F)F [MSC-C9-30, 19-((E)-2-(5-bromo-1H-indol-3-yl)vinyl)-6,7,8,11,12,13-hexahydropyrido[1′″,2′″:1″,2″]azepino[4″,3″:5′,6′]benzo[1′,2′:3,4]azepino[1,2-a]quinoline-5,14-diium trifluoromethanesulfonate] | > 20 | 68 | ≤ 10 | < 25 | – | – | – |
| O=[N+]([O-])c1cccc2[nH]cc(/C=C/c3cc[n+]4c(c3)-c3c(ccc5c3-c3cccc[n+]3CC5)CC4)c12 (racemic) [LSA-C9-32, (rac)-(E)-2-(2-(4-nitro-1H-indol-3-yl)vinyl)-6,7,10,11-tetrahydrodipyrido[2,1-a:1′,2′-k][2,9]phenanthroline-5,12-diium trifluoromethanesulfonate] | > 20 | 74 | 11 to 25 | < 25 | – | – | – |
| C(=C\c1c(-c2ccccc2)[nH]c2ccccc12)/c1cc2ccccc2[n+]2c1-c1c(ccc3c1-c1cccc[n+]1CCC3)CCC2.O=S(=O)([O-])C(F)(F)F.O=S(=O)([O-])C(F)(F)F [MSC-C15-8, 19-((E)-2-(2-phenyl-1H-indol-3-yl)vinyl)-6,7,8,11,12,13-hexahydropyrido[1′″,2′″:1″,2″]azepino[4″,3″:5′,6′]benzo[1′,2′:3,4]azepino[1,2-a]quinoline-5,14-diium trifluoromethanesulfonate] | > 20 | 76 | 11 to 25 | – | – | – | – |
| Cc1c(C)c2c(c3c1CC[n+]1ccc(/C=C/c4cccc5c4oc4ccccc45)cc1-3)-c1c3ccccc3cc[n+]1CC2 (racemic) [MJA-C13-8, (rac)-(E)-13-(2-(dibenzo[b,d]furan-4-yl)vinyl)-6,7-dimethyl-4,5,8,9-tetrahydroisoquinolino[1,2-a]pyrido[1,2-k][2,9]phenanthroline-3,10-diium trifluoromethanesulfonate] | > 40 | 56 | 26 to 50 | – | 79.3 ± 6.7 | 69.8 ± 6.0 | 57.9 ± 2.5 |
| C(=C\c1cccc2c1oc1ccccc12)/c1cc[n+]2c(c1)-c1c(ccc3c1-c1c4ccccc4cc[n+]1CC3)CC2.O=S(=O)([O-])C(F)(F)F.O=S(=O)([O-])C(F)(F)F [MSB-C13-8, (E)-13-(2-(dibenzo[b,d]furan-4-yl)vinyl)-4,5,8,9-tetrahydroisoquinolino[1,2-a]pyrido[1,2-k][2,9]phenanthroline-3,10-diium trifluoromethanesulfonate] | – | – | 26 to 50 | – | – | – | – |
